Source: patent US9169241B2, “Quinolinyloxyphenylsulfonamides” (Max-Planck-Gesellschaft Zur Forderung der Wissenschaften …, priority 2009, dated 2015)
Like-named read-outs stand apart in the source and are kept apart here.

Legend:
indicated cell line = test: Wound healing migration assay (Table IV); assay type: cell-based; conditions: compounds at 12.5, 6.25, 3.125 μM, 48 h-72 h
Summary of the method: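 Compound exposure at 12.5, 6.25 and 3.125 μM, with DMSO control, on scratch-wounded monolayers (150000 cells/24 well, overnight). Wound closure imaged by microscopy, fixed with crystal violet after 48 h or 72 h depending on cell line; IC50 is the concentration giving 50% wound size between t0 and t48/t72.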

U118 = test: Cell vitality assay (ATP assay, CellTiter-Glo); assay type: cell-based
Summary of the method: (§1)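 Luminescent ATP read-out of viable cells; IC50 = concentration at which ATP falls to 50% of DMSO control. Cells seeded at 1000/well, treated 72 h with seven concentrations from 0.195 to 12.5 μM.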

MDA-MB231 = test: Cell vitality assay (ATP assay, CellTiter-Glo); assay type: cell-based; conditions: Homo sapiens, MDA-MB-231
Summary of the method: as §1

SF126 = test: Cell vitality assay (ATP assay, CellTiter-Glo); assay type: cell-based; conditions: Homo sapiens, SF-126
Summary of the method: as §1

Hs578T [1] = test: Cell vitality assay (ATP assay, CellTiter-Glo); assay type: cell-based; conditions: Homo sapiens, Hs-578T, 72 h
Summary of the method: as §1

U138 = test: Cell vitality assay (ATP assay, CellTiter-Glo); assay type: cell-based; conditions: U138, 72 h; Table IIa; read-out: IC50 ATP-Assay after 72 h U138
Summary of the method: as §1

SF763 = test: Cell vitality assay (ATP assay, CellTiter-Glo); assay type: cell-based; conditions: SF763, 72 h; Table IIa; read-out: IC50 ATP-Assay after 72 h SF763
Summary of the method: as §1

C8161 = test: Cell vitality assay (ATP assay, CellTiter-Glo); assay type: cell-based; conditions: Homo sapiens; C8161, 72 h; Table IIa; read-out: IC50 ATP-Assay after 72 h C8161
Summary of the method: as §1

Hs578T [2] = test: Matrigel outgrowth assay/branching assay; assay type: cell-based; conditions: Homo sapiens, Hs-578T; HS578T cell line; Table Ib; read-out: Total branching inhibition in Matrigel HS578T
Summary of the method: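 Invasive outgrowth into a 3 mg/ml Matrigel gel is judged from images taken after 48, 72 and 96 h of exposure to 3.125, 1.56 or 0.78 μM compound, with DMSO as control. Positive means total inhibition of branching.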

A172 = test: Cell vitality assay (ATP assay, CellTiter-Glo); assay type: cell-based; conditions: Homo sapiens, A 172; A172, 72 h; Table IIa; read-out: IC50 ATP-Assay after 72 h A172
Summary of the method: as §1

[3] = Homo sapiens, C8161 cells, read-out: IC50 Wound healing Assay C8161
[4] = SF763 cells, read-out: IC50 Wound healing Assay SF763
[5] = U118, 72 h, Table IIa, read-out: IC50 ATP-Assay after 72 h U118
[6] = MDA-MB231, 72 h, Table IIa, read-out: IC50 ATP-Assay after 72 h MDA-MB231
[7] = SF126, 72 h, Table IIa, read-out: IC50 ATP-Assay after 72 h SF126
[8] = Hs578T, Table IIa, read-out: IC50 ATP-Assay after 72 h Hs578T
[9] = HS578T cell line, Table Ib, read-out: IC50 ATP-Assay HS578T after 72 h
[10] = Homo sapiens, A 172, A172 cells, read-out: IC50 Wound healing Assay A172
[11] = Homo sapiens, SF-126, SF126 cells, read-out: IC50 Wound healing Assay SF126
[12] = U118 cells, read-out: IC50 Wound healing Assay U118
[13] = cell vitality assay, U118, Table IIc, read-out: IC50 U118
[14] = cell vitality assay, MDA-MB231, Table IIc, read-out: IC50 MDA-MB231
[15] = cell vitality assay, SF126, Table IIb, read-out: IC50 SF126

IC50 (indicated cell line; [3]) | IC50 (indicated cell line; [4]) | IC50 (MDA-MB231; [6]) | melting point | IC50 (indicated cell line; [10]) | IC50 (indicated cell line; [11]) | IC50 (indicated cell line; [12]) | IC50 (MDA-MB231; [14]) | SMILES | IC50 (U118; [5]) | IC50 (SF126; [7]) | IC50 (Hs578T [1]; [8]) | IC50 (U138) | IC50 (SF763) | IC50 (C8161) | IC50 (Hs578T [2]) | IC50 (Hs578T [1]; [9]) | IC50 (U118; [13]) | IC50 (A172) | IC50 (SF126; [15])
≤ 12.5 µM | ≤ 12.5 µM | 12.5 to 50 µM | 125 to 127 °C |  |  |  |  | COc1cc2c(Oc3ccc(NS(=O)(=O)c4ccc(F)c(C#N)c4)cc3F)ccnc2cc1OCCCN1CCCC(C)C1 (centres unmarked) [Example 72, 3-Cyano-4-fluoro-N-(3-fluoro-4-{6-methoxy-7-[3-(3-methyl-piperidin-1-yl)-propoxy]-quinolin-4-yloxy}-phenyl)-benzenesulfonamide] | 12.5 to 50 µM | 12.5 to 50 µM | 12.5 to 50 µM | 12.5 to 50 µM | 12.5 to 50 µM | 12.5 to 50 µM | ≤ 10 µM |  |  |  | 
12.5 to 50 µM | ≤ 12.5 µM | ≤ 12.5 µM | 100 to 103 °C |  |  |  |  | COc1cc2c(Oc3ccc(NS(=O)(=O)c4ccc(Cl)s4)cc3F)ccnc2cc1OCCCN1CCCC(C)C1 (centres unmarked) [Example 63, 5-Chloro-thiophene-2-sulfonic acid (3-fluoro-4-{6-methoxy-7-[3-(3-methyl-piperidin-1-yl)-propoxy]-quinolin-4-yloxy}-phenyl)-amide] | ≤ 12.5 µM | 12.5 to 50 µM | ≤ 12.5 µM | 12.5 to 50 µM | ≤ 12.5 µM | ≤ 12.5 µM | ≤ 10 µM | ≤ 12.5 µM |  |  | 
12.5 to 50 µM | ≤ 12.5 µM | ≤ 12.5 µM | 125 to 127 °C |  |  |  |  | COc1cc2c(Oc3ccc(NS(=O)(=O)c4cccc(C#N)c4)cc3F)ccnc2cc1OCCCN1CCCC(C)C1 (centres unmarked) [Example 41, 3-Cyano-N-(3-fluoro-4-{6-methoxy-7-[3-(3-methyl-piperidin-1-yl)-propoxy]-quinolin-4-yloxy}-phenyl)-benzenesulfonamide] | ≤ 12.5 µM | 12.5 to 50 µM | ≤ 12.5 µM | ≤ 12.5 µM | ≤ 12.5 µM | ≤ 12.5 µM | ≤ 10 µM |  |  |  | 
≤ 12.5 µM | 12.5 to 50 µM | 12.5 to 50 µM | 174 to 176 °C |  |  |  |  | COc1cc2c(Oc3ccc(NS(=O)(=O)c4ccc(C)c(F)c4)cc3F)ccnc2cc1OCCCN1CCCC(C)C1 (centres unmarked) [Example 56, 3-Fluoro-N-(3-fluoro-4-{6-methoxy-7-[3-(3-methyl-piperidin-1-yl)-propoxy]-quinolin-4-yloxy}-phenyl)-4-methyl-benzenesulfonamide] | 12.5 to 50 µM | ≤ 12.5 µM | 12.5 to 50 µM | ≤ 12.5 µM | ≤ 12.5 µM | ≤ 12.5 µM | 10 to 25 µM | 12.5 to 50 µM |  |  | 
≤ 12.5 µM |  |  |  | ≤ 12.5 µM | ≤ 12.5 µM | ≤ 12.5 µM | ≤ 12.5 µM | COc1cc2c(Oc3ccc(NS(=O)(=O)c4cc(F)ccc4F)cc3F)ccnc2cc1OCCCN1CCN(C)CC1 [Example 12, 2,5-Difluoro-N-(3-fluoro-4-{6-methoxy-7-[3-(4-methyl-piperazin-1-yl)-propoxy]-quinolin-4-yloxy}-phenyl)-benzenesulfonamide] | ≤ 12.5 µM | ≤ 12.5 µM |  |  |  |  | ≤ 10 µM | ≤ 12.5 µM | ≤ 12.5 µM | ≤ 12.5 µM | ≤ 12.5 µM
12.5 to 50 µM | 12.5 to 50 µM | ≤ 12.5 µM | 140 to 141 °C |  |  |  |  | COc1cc2c(Oc3ccc(NS(=O)(=O)c4cccc(Oc5ccccc5)c4)cc3F)ccnc2cc1OCCCN1CCN(C)CC1 [Example 14, N-(3-Fluoro-4-{6-methoxy-7-[3-(4-methyl-piperazin-1-yl)-propoxy]-quinolin-4-yloxy}-phenyl)-3-phenoxy-benzenesulfonamide] | 12.5 to 50 µM | ≤ 12.5 µM |  | 12.5 to 50 µM | ≤ 12.5 µM | ≤ 12.5 µM |  |  |  |  | 
≤ 12.5 µM | 12.5 to 50 µM | ≤ 12.5 µM | 168 to 170 °C |  |  |  |  | COc1cc2c(Oc3ccc(NS(=O)(=O)c4ccccc4OC)cc3F)ccnc2cc1OCCCN1CCN(C)CC1 [Example 33, N-(3-Fluoro-4-{6-methoxy-7-[3-(4-methyl-piperazin-1-yl)-propoxy]-quinolin-4-yloxy}-phenyl)-2-methoxy-benzenesulfonamide] | ≤ 12.5 µM | ≤ 12.5 µM | ≤ 12.5 µM | ≤ 12.5 µM | ≤ 12.5 µM | ≤ 12.5 µM | ≤ 10 µM |  |  |  | 
 |  |  | 132 to 134 °C | ≤ 12.5 µM | ≤ 12.5 µM | ≤ 12.5 µM | ≤ 12.5 µM | COC(=O)c1sccc1S(=O)(=O)Nc1ccc(Oc2ccnc3cc(OCCCN4CCCC(C)C4)c(OC)cc23)c(F)c1 (centres unmarked) [Example 66, 3-(3-Fluoro-4-{6-methoxy-7-[3-(3-methyl-piperidin-1-yl)-propoxy]-quinolin-4-yloxy}-phenylsulfamoyl)-thiophene-2-carboxylic acid methyl ester] | ≤ 12.5 µM | ≤ 12.5 µM |  |  |  |  | 10 to 25 µM | ≤ 12.5 µM | ≤ 12.5 µM | ≤ 12.5 µM | ≤ 12.5 µM
12.5 to 50 µM | ≤ 12.5 µM |  | 113 to 115 °C | ≤ 12.5 µM | ≤ 12.5 µM | ≤ 12.5 µM |  | COc1cc2c(Oc3ccc(NS(=O)(=O)c4cccc(-c5ccccc5)c4)cc3F)ccnc2cc1OCCCN1CCCCC1 [Example 8, Biphenyl-3-sulfonic acid {3-fluoro-4-[6-methoxy-7-(3-piperidin-1-yl-propoxy)-quinolin-4-loxy]-phenyl}-amide] | ≤ 12.5 µM | ≤ 12.5 µM | 12.5 to 50 µM | ≤ 12.5 µM | ≤ 12.5 µM | ≤ 12.5 µM | ≤ 10 µM | 12.5 to 50 µM |  | ≤ 12.5 µM | 
≤ 12.5 µM | 12.5 to 50 µM | 12.5 to 50 µM | 125 to 128 °C |  |  |  |  | COc1cc2c(Oc3ccc(NS(=O)(=O)c4ccccc4[N+](=O)[O-])cc3F)ccnc2cc1OCCCN1CCN(C)CC1 [Example 21, N-(3-Fluoro-4-{6-methoxy-7-[3-(4-methyl-piperazin-1-yl)-propoxy]-quinolin-4-yloxy}-phenyl)-2-nitro-benzenesulfonamide] | 12.5 to 50 µM | 12.5 to 50 µM |  |  | 12.5 to 50 µM | 12.5 to 50 µM | ≤ 10 µM |  |  |  | 
12.5 to 50 µM | 12.5 to 50 µM | ≤ 12.5 µM |  |  |  |  |  | COc1cc2c(Oc3ccc(NS(=O)(=O)c4ccccc4C(F)(F)F)cc3F)ccnc2cc1OCCCNC1CCOCC1 [Example 95, N-(3-Fluoro-4-{6-methoxy-7-[3-(tetrahydro-pyran-4-ylamino)-propoxy]-quinolin-4-yloxy}-phenyl)-2-trifluoromethyl-benzenesulfonamide] | ≤ 12.5 µM | ≤ 12.5 µM | 12.5 to 50 µM | ≤ 12.5 µM | ≤ 12.5 µM | 12.5 to 50 µM | ≤ 10 µM |  |  |  | 
12.5 to 50 µM | ≤ 12.5 µM | ≤ 12.5 µM |  |  |  |  |  | COc1cc2c(Oc3c(Cl)cc(NS(=O)(=O)c4c(F)cccc4F)cc3Cl)ccnc2cc1OCCCN1CCN(C)CC1 [Example 88, N-(3,5-Dichloro-4-{6-methoxy-7-[3-(4-methyl-piperazin-1-yl)-propoxy]-quinolin-4-yloxy}-phenyl)-2,6-difluoro-benzenesulfonamide] | ≤ 12.5 µM | 12.5 to 50 µM | ≤ 12.5 µM | 12.5 to 50 µM | 12.5 to 50 µM | ≤ 12.5 µM | 10 to 25 µM |  |  |  | 
